Values of other authors, collected in US20010006649A1, “STABLE ORAL PHARMACEUTICAL DOSAGE FORMS” (priority 1997, published 2001).

Tests used:
[1] = enteric granule formulations, alkaline stabilizers screened
[2] = omeprazole solution, pH-decomposition rate profile

Row | Compound | stability when exposed to light | optimal pH stability [1] | pH of maximum stability [2]
1 | Cc1c(OCC(F)(F)F)ccnc1C[S+]([O-])c1nc2ccccc2[nH]1 (stereo not drawn) [Lansoprazole, 2-[[[3-methyl-4-(2,2,2-trifluroethoxy)-2-pyridyl]methyl]sulfinyl] benzimidazole] | relatively stable | 9 | 
2 | COc1ccc2[nH]c([S+]([O-])Cc3ncc(C)c(OC)c3C)nc2c1 (stereo not drawn) [omeprazole, 2-[2-(3,5-dimethyl-4-methoxy)-pyridylmethylsulfinyl]-(5-methoxy)-benzimidazole] |  |  | 11
